Values quoted from earlier work as cited in patent US20200221707A1, “Sanitizing Compositions and Methods for Making and Using Same” (priority 2017, published 2020).

How the values were obtained:
[1] = tested on: Gram-positive bacteria
[2] = tested on: Gram-negative bacteria and fungi
[3] = tested on: most bacteria; details: in <30 seconds

SMILES | amount active against Gram-positive bacteria [1] | amount effective against Gram-negative bacteria and fungi [2] | bacteria destroyed [3]
[H]/N=C(\N/C(=N/[H])NCCCCCCNC(=N)NC(=N)Nc1ccc(Cl)cc1)Nc1ccc(Cl)cc1 [Chlorhexidine] | at least 1 ppm | 10-80 ppm | 
CC(C)O [Isopropyl alcohol] |  |  | > 99.99%
